This passage reports IC50 and Activity results from ChEMBL document CHEMBL1141307, “Antimalarial benzoquinones from an endophytic fungus, Xylaria sp” (J Nat Prod, 2007).

For one data set, the system named is Vero. In words: Cytotoxicity against African green monkey Vero cells after 72 hrs. It is filed as cell-based. To be noted: Chlorocebus sabaeus.
In the next data set the test system is Plasmodium falciparum. Briefly: Antimalarial activity against multidrug-resistant Plasmodium falciparum K1 by microculture radioisotope assay. In kind it is functional, organism-based.

Active and inactive are the calls of the source. No cut-off for these calls is given here.

In general, IC50 refers to the concentration needed to halve the response being measured. `COC1=CC(=O)C(Cl)=C(C)C1=O`: the IC50 in the data set on Vero worked out at 1350 nM; in the data set on Plasmodium falciparum it was 1840 nM. `Cc1c2ccncc2c(C)c2c1[nH]c1ccccc12` [ELLIPTECINE]: it took 2030 nM to reach half-maximal inhibition with Vero (IC50). Consider `COc1cc2c3c(oc2c(C)c1O)C(=O)C(C)=CC3=O` [XYLARIAQUINONE A], for which the IC50 in the data set on Vero was over 184000 nM; in the data set with Plasmodium falciparum it was 6680 nM. Regarding `C[C@H]1OC(=O)c2c(O)cccc2C1O` (stereo not given in full), the Activity result in the data set on Vero is on record as “Not Active”. Further, the result in the data set on Plasmodium falciparum was inactive. For `C[C@H]1[C@@H](O)O[C@@H]2O[C@@]3(C)CC[C@H]4[C@H](C)CC[C@@H]1[C@@]24OO3` [ARTENIMOL], the midpoint of inhibition with Plasmodium falciparum, the IC50, lay at 3.3 nM.

For `COC1=CC(=O)C(O)=C(C)C1=O`, the Activity entry with Vero is given as “Not Active”. Also, the result in the data set with Plasmodium falciparum was inactive.
